Experimental data reported in patent US4482554A, “Pharmaceutical compositions containing oxicam derivatives and process for their preparation” (Warner-Lambert Company, priority 1982, dated 1984).
Where a name gives a salt, the structure may show the parent alone. Read-outs that look alike come from different tables or passages of the source. Each block holds one compound with its values, some of them ahead of it.

Legend:
[1] = solubility in water of stoichiometric oxicam salts; assay type: physicochemical
[2] = stability of solutions / precipitation of active material on storage; assay type: physicochemical
Text: Especially in the case of oxicam derivatives of general formula (I), there is, in addition, the serious problem of instability of their solutions. Even when such compounds or the salts thereof have been brought into solution, these show a strong tendency, even after a relatively short time, to deposit particles and again to precipitate out a part of the active material. For injection solutions, this is naturally not acceptable.
There are thereby unexpectedly obtained, which was not to have been foreseen by the expert, highly concentrated solutions with a content of up to 30% and preferably of 10 to 20%, referred to the amount of active material used, which, even after storage for 15 months, display no deposition of active material. It is most surprising that this stability is fully retained even at low temperatures.

solubility ([1]; stoichiometric salt with methylglucamine, per milliliter of solution, read-out: active material per milliliter of solution): 49 mg/mL | dependence of degree of precipitation on concentration ([2]; salt solution, over wide ranges): not dependent upon the concentration
Compound: Cc1cc(NC(=O)C2=C(O)c3ccccc3S(=O)(=O)N2C)no1
stability of the solution ([2]; stoichiometric salts, precipitation of active material): unstable and again precipitate out considerable amounts of active material

solubility ([1]; shortly after preparation, read-out: solubility in water, initial): ~24 mg/mL
Compound: Cc1cc(NC(=O)C2=C(O)c3ccccc3S(=O)(=O)N2C)no1 [sodium salts of isoxicam]

solubility in water after storage ([1]; after 4 months, decreased by precipitation from the solution, 175200 min): 20 mg/mL | solubility in water, initial ([1]; shortly after preparation): about 30 mg/ml
Compound: Cc1cc(NC(=O)C2=C(O)c3ccccc3S(=O)(=O)N2C)no1 [potassium salts]
